Laboratory results published in patent publication US9464056B2, “Fungicidal 4-methylanilino pyrazoles” (E. I. DU PONT DE NEMOURS AND COMPANY, priority 2012, dated 2016).

What was measured:
[1] = system: Puccinia recondita f. sp. tritici; assay: Test E2: preventive spray on wheat seedlings, Puccinia recondita f. sp. tritici (wheat leaf rust), visual disease rating; type: in vivo; conditions: topical, 192 h, 100 = 100% disease control, 0 = no disease control relative to controls
Text: (§1) General protocol for preparing test suspensions for Tests A-H: the test compounds were first dissolved in acetone in an amount equal to 3% of the final volume and then suspended at the desired concentration (in ppm) in acetone and purified water (50/50 mix by volume) containing 250 ppm of the surfactant Trem® 014 (polyhydric alcohol esters). The resulting test suspensions were then used in Tests A-F. Spraying a 40 ppm test suspension to the point of run-off on the test plants was the equivalent of a rate of 160 g/ha. Unless otherwise indicated, the rating values indicate a 40 ppm test suspension was used. The test suspension was sprayed to the point of run-off on wheat seedlings. The following day the seedlings were inoculated with a spore suspension of Puccinia recondita f. sp. tritici (the causal agent of wheat leaf rust) and incubated in a saturated atmosphere at 20° C. for 24 h, and then moved to a growth chamber at 20° C. for 7 days, after which time visual disease ratings were made. Results for Tests A-F are given in Table A. In the Table, a rating of 100 indicates 100% disease control and a rating of 0 indicates no disease control (relative to the controls). A dash (-) indicates no test results.

[2] = system: Botrytis cinerea; assay: Test A: preventive spray on tomato seedlings, Botrytis cinerea (tomato Botrytis), visual disease rating; type: in vivo; conditions: 100 = 100% disease control, 0 = no disease control relative to controls
Text: General protocol for preparing test suspensions for Tests A-H: the test compounds were first dissolved in acetone in an amount equal to 3% of the final volume and then suspended at the desired concentration (in ppm) in acetone and purified water (50/50 mix by volume) containing 250 ppm of the surfactant Trem® 014 (polyhydric alcohol esters). The resulting test suspensions were then used in Tests A-F. Spraying a 40 ppm test suspension to the point of run-off on the test plants was the equivalent of a rate of 160 g/ha. Unless otherwise indicated, the rating values indicate a 40 ppm test suspension was used. The test suspension was sprayed to the point of run-off on tomato seedlings. The following day the seedlings were inoculated with a spore suspension of Botrytis cinerea (the causal agent of tomato Botrytis) and incubated in saturated atmosphere at 20° C. for 48 h, and then moved to a growth chamber at 27° C. for 3 days, after which time visual disease ratings were made. Results for Tests A-F are given in Table A. In the Table, a rating of 100 indicates 100% disease control and a rating of 0 indicates no disease control (relative to the controls). A dash (-) indicates no test results.

[3] = system: Septoria tritici; assay: Test D: preventive spray on wheat seedlings, Septoria tritici (wheat leaf blotch), visual disease rating; type: in vivo; conditions: Zymoseptoria tritici, topical, 504 h, 100 = 100% disease control, 0 = no disease control relative to controls
Text: General protocol for preparing test suspensions for Tests A-H: the test compounds were first dissolved in acetone in an amount equal to 3% of the final volume and then suspended at the desired concentration (in ppm) in acetone and purified water (50/50 mix by volume) containing 250 ppm of the surfactant Trem® 014 (polyhydric alcohol esters). The resulting test suspensions were then used in Tests A-F. Spraying a 40 ppm test suspension to the point of run-off on the test plants was the equivalent of a rate of 160 g/ha. Unless otherwise indicated, the rating values indicate a 40 ppm test suspension was used. The test suspension was sprayed to the point of run-off on wheat seedlings. The following day the seedlings were inoculated with a spore suspension of Septoria tritici (the causal agent of wheat leaf blotch) and incubated in saturated atmosphere at 24° C. for 48 h, and then moved to a growth chamber at 20° C. for 19 days, after which time visual disease ratings were made. Results for Tests A-F are given in Table A. In the Table, a rating of 100 indicates 100% disease control and a rating of 0 indicates no disease control (relative to the controls). A dash (-) indicates no test results.

[4] = system: Blumeria graminis f. sp. tritici; assay: Test F: preventive spray on wheat seedlings, Blumeria graminis f. sp. tritici (wheat powdery mildew), visual disease rating; type: in vivo; conditions: topical, 192 h, 100 = 100% disease control, 0 = no disease control relative to controls
Text: as §1, with “spore dust” for “spore suspension”, “of Blumeria graminis” for “of Puccinia recondita”, “tritici (also known as Erysiphe graminis f. sp. tritici, the” for “tritici (the”, “wheat powdery mildew)” for “wheat leaf rust)”, “in” for “in a saturated atmosphere at 20° C. for 24 h, and then moved to”, “for 8” for “for 7”

[5] = system: Septoria nodorum; assay: Test C: preventive spray on wheat seedlings, Septoria nodorum (Septoria glume blotch), visual disease rating; type: in vivo; conditions: Parastagonospora nodorum, topical, 264 h, 100 = 100% disease control, 0 = no disease control relative to controls
Text: General protocol for preparing test suspensions for Tests A-H: the test compounds were first dissolved in acetone in an amount equal to 3% of the final volume and then suspended at the desired concentration (in ppm) in acetone and purified water (50/50 mix by volume) containing 250 ppm of the surfactant Trem® 014 (polyhydric alcohol esters). The resulting test suspensions were then used in Tests A-F. Spraying a 40 ppm test suspension to the point of run-off on the test plants was the equivalent of a rate of 160 g/ha. Unless otherwise indicated, the rating values indicate a 40 ppm test suspension was used. The test suspension was sprayed to the point of run-off on wheat seedlings. The following day the seedlings were inoculated with a spore suspension of Septoria nodorum (the causal agent of Septoria glume blotch) and incubated in a saturated atmosphere at 20° C. for 48 h, and then moved to a growth chamber at 20° C. for 9 days, after which time visual disease ratings were made. Results for Tests A-F are given in Table A. In the Table, a rating of 100 indicates 100% disease control and a rating of 0 indicates no disease control (relative to the controls). A dash (-) indicates no test results.

Structure (SMILES)	melting point [°C]	pest or weed control at 40 µg/mL [1] [%]	pest or weed control at 40 µg/mL [2] [%]	pest or weed control at 40 µg/mL [3] [%]	pest or weed control at 40 µg/mL [4] [%]	pest or weed control at 40 µg/mL [5] [%]
Cc1cc(Cl)c(Nc2c(-c3ccc(F)cc3Cl)c(C)nn2C)c(Cl)c1 [Compound 13, 4-(2-chloro-4-fluorophenyl)-N-(2,6-dichloro-4-methylphenyl)-1,3-dimethyl-1H-pyrazol-5-amine]	188 to 189	100	100	100	100	0
Cc1cc(F)c(Nc2c(-c3ccc(F)cc3F)c(C)nn2C)c(Br)c1 [Compound 8, N-(2-bromo-6-fluoro-4-methylphenyl)-4-(2,4-difluorophenyl)-1,3-dimethyl-1H-pyrazol-5-amine]	143 to 144	100	100	100	100	97
Cc1cc(F)c(Nc2c(-c3ccc(F)cc3F)c(C)nn2C)c(F)c1 [Compound 9, N-(2,6-difluoro-4-methylphenyl)-4-(2,4-difluorophenyl)-1,3-dimethyl-1H-pyrazol-5-amine]	156 to 158	96	100	100	100	96
Cc1cc(F)c(Nc2c(-c3ccc(F)cc3Br)c(C)nn2C)c(Br)c1 [Compound 7, N-(2-bromo-6-fluoro-4-methylphenyl)-4-(2-bromo-4-fluorophenyl)-1,3-dimethyl-1H-pyrazol-5-amine]	143 to 145	100	100	100	100	99
Cc1cc(F)c(Nc2c(-c3ccc(F)cc3Br)c(C)nn2C)c(F)c1 [Compound 14, 4-(2-bromo-4-fluorophenyl)-N-(2,6-difluoro-4-methylphenyl)-1,3-dimethyl-1H-pyrazol-5-amine]	114 to 116	100	100	100	100	86
